# Columns and labels:
# [1] = target: T1, Barley GAA (high-isoelectric-point (pI) α-glucosidase) (Hordeum vulgare, UniProt Q43763); conditions: cited from earlier work
# T1 sequence (Q43763 24-877): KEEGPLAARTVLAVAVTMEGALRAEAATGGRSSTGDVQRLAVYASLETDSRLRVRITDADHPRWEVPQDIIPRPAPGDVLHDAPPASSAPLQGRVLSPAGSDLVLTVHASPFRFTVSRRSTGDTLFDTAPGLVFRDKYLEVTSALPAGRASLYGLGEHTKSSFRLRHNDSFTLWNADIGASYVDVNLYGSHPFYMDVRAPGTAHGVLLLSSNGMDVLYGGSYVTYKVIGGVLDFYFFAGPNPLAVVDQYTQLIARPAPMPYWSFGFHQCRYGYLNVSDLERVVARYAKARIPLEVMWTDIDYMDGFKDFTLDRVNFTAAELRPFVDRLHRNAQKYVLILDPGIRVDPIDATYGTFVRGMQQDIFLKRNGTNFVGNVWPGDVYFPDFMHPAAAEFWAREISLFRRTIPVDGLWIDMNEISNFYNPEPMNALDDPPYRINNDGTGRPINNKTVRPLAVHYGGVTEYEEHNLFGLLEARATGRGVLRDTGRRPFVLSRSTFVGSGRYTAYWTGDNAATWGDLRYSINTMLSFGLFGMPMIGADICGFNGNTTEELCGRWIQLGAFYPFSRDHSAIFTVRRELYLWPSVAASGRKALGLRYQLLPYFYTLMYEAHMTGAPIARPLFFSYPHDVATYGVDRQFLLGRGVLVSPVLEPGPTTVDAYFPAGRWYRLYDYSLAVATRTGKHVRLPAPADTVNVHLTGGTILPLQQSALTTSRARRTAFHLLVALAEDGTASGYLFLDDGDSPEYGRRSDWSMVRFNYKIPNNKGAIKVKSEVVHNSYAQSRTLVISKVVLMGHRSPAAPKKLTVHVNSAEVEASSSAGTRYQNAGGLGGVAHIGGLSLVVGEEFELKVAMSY
# [2] = system: human white blood cells; assay: Uptake of GGB crude lysate by human white blood cells; assay type: cell-based; conditions: 18 hrs at 37° C.
# Method: (§1) Uptake of a crude lysate of 7-8 day GGB by white blood cells (“WBC”) from humans and GAA KO mice was tested. Each treatment was performed±5 mM mannose-6 phosphate. Mannose-6 phosphate treatment blocks uptake by the M-6-P receptor (Martiniuk et al., “Further Studies of The Structure of Human Placental Acid Alpha-Glucosidase,” Arch Biochem Biophys 231:454-460 (1984); Martiniuk et al., “Production of a Functional Human Acid Maltase in Tobacco Seeds: Biochemical Analysis, Uptake by Human GSDII Cells, and in vivo Studies in GAA Knockout Mice,” Appl Biochem Biotechnol 171:916-926 (2013), each of which is hereby incorporated by reference in their entirety). Human placental GAA (hGAA) was used as a positive control. Anti-coagulate-EDTA was added at 1.5 to 2.0 mg/ml of whole blood. 0.15 ml of human and mouse KO blood was used and a 14×RBC lysing solution (NH4Cl (ammonium chloride)—8.02 g; NaHCO3 (sodium bicarbonate)—0.84 g; EDTA (disodium)—0.37 g to 100 ml with water) was added in a 1.5 ml microfuge tube, inverted for 10 minutes at RT until the liquid was clear red followed by spinning for 1 minute in a microfuge. The supernatant was decanted, cells were washed with phosphate buffered saline (PBS) and re-suspend in 2.4 ml complete DMEM-10% FBS (Life Technologies). […]
# [3] = system: GAA KO mice white blood cells; assay: Uptake of GGB crude lysate by GAA KO mouse white blood cells ± mannose-6-phosphate; assay type: cell-based; conditions: 5 mM mannose-6-phosphate
# Method: as §1
# [4] = system: GAA KO mice; conditions: cited from earlier work
compound,measurement,setting,value
C[C@H]1O[C@H](O[C@H]2[C@H](O)[C@@H](O)[C@@H](O[C@H]3[C@H](O)[C@@H](O)C(O)O[C@@H]3CO)O[C@@H]2CO)[C@H](O)[C@@H](O)[C@@H]1N[C@H]1C=C(CO)[C@@H](O)[C@H](O)[C@H]1O (stereo partly drawn) [Acarbose],Ki,[1],1500 nM
placental hGAA: Human placental GAA (hGAA) used as a positive control,GAA/NAG ratio compared to mock treated cells,[2],higher ratios of GAA/NAG
same,uptake with mannose-6-phosphate,[3],blocked
rhGAA: recombinant human GAA,Glycogen reduction,"[4]; 20 mg/kg/wk for 5 mo., skeletal muscle",< 50%
same,enzyme uptake by skeletal muscle compared to liver and heart,[4]; 20 mg/kg/wk for 5 mo.,minimal
same,glycogen clearance in skeletal muscle,[4]; 100 mg/kg/wk,~75%

# Reference: patent publication US11839641B2, “Methods and compositions for treatment of lysosomal storage disorders” (JME Group Associates Inc., priority 2020, dated 2023)
